Holding throughout (assay): TGFα-shedding assay-based GPCR screening with chimeric Gα subunit proteins
Type in all cases: cell-based
What all share (conditions): 10µM, Favipiravir 100μM

For assay [1], the target named is T1, 348 GPCRs (Homo sapiens, UniProt P35367).
T1 construct: expressed in transfected cells; host or cells: HEK293A

The target in assay [2] is T2, 348 GPCRs (Homo sapiens, UniProt Q5T6X5).
T2 construct: expressed in transfected cells; host or cells: HEK293A
T2 sequence (Q5T6X5 19-926): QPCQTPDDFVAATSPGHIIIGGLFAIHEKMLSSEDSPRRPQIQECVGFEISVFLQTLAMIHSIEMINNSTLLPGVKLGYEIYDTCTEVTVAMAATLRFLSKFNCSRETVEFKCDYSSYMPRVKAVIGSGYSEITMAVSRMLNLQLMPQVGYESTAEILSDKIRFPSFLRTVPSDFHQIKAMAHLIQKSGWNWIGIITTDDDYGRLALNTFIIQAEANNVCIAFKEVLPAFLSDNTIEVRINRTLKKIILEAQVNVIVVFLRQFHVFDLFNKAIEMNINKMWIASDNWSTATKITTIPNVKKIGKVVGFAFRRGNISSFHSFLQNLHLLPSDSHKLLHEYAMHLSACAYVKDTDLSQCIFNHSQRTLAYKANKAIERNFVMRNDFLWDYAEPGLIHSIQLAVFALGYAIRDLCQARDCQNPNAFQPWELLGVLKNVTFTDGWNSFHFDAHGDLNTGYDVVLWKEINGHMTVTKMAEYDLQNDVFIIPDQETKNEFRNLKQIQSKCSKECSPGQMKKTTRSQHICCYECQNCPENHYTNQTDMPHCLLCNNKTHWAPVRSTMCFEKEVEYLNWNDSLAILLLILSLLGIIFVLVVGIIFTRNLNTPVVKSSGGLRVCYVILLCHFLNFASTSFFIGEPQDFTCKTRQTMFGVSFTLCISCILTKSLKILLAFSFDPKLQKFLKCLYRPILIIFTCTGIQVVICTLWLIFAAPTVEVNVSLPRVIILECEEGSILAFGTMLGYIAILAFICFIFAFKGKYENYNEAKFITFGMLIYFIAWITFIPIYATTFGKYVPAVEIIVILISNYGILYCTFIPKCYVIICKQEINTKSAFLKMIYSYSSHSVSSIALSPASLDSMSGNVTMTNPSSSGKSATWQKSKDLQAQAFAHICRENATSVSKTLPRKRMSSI

Assay [3] addresses T3, 348 GPCRs (Homo sapiens, UniProt Q8IWK6).
T3 construct: expressed in transfected cells; host or cells: HEK293A
T3 sequence (Q8IWK6 34-1321): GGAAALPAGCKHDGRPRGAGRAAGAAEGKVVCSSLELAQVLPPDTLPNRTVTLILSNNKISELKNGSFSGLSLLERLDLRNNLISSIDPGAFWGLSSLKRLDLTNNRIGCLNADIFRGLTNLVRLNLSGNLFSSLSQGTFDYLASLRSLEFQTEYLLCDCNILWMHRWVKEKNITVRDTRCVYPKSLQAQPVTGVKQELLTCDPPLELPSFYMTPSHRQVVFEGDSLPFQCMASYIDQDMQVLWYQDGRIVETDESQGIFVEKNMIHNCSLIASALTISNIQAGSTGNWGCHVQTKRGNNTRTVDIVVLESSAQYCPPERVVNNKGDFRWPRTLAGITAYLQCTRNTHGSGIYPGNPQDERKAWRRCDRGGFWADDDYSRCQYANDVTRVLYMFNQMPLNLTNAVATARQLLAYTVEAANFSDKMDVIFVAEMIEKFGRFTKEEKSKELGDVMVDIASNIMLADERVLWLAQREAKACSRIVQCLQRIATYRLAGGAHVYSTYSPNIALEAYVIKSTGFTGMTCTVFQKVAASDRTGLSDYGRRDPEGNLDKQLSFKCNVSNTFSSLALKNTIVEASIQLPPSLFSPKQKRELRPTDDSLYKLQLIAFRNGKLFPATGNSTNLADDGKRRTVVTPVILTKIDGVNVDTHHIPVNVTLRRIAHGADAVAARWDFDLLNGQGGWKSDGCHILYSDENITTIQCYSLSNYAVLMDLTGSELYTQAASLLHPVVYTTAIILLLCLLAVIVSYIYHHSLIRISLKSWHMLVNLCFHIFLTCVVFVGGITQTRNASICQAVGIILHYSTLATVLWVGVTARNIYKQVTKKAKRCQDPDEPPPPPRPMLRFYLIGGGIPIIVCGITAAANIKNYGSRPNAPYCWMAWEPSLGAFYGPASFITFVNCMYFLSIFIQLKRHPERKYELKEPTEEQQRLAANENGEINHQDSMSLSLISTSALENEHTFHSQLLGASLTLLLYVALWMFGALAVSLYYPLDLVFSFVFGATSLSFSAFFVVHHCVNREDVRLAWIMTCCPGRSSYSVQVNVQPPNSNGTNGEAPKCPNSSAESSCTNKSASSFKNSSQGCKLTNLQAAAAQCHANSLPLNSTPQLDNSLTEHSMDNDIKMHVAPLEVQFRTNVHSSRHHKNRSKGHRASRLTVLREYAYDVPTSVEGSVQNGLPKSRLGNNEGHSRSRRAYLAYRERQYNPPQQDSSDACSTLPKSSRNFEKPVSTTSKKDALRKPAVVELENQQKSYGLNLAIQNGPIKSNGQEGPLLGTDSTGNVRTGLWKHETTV

In assay [4] the target is T4, 348 GPCRs (Homo sapiens, UniProt Q8TDS5).
T4 construct: expressed in transfected cells; host or cells: HEK293A

Assay [5] addresses T5, 348 GPCRs (Homo sapiens, UniProt Q99527).
T5 construct: expressed in transfected cells; host or cells: HEK293A

The target of assay [6] is T6, 348 GPCRs (Homo sapiens, UniProt Q9H1Y3).
T6 construct: expressed in transfected cells; host or cells: HEK293A

[7] abbreviates: read-out: % GPCR activation compared to TPA, H1 (histamine receptor H1).
Setting [8] is: read-out: % GPCR activation compared to TPA, GPRC6A (G protein-coupled receptor, family C, group 6, member A).
Where [9] appears, read: read-out: % GPCR activation compared to TPA, GPR125 (Adhesion G Protein-Coupled Receptor A2 (ADGRA3)).
The mark [10] stands for this setting: read-out: % GPCR activation compared to TPA, OXER1 (oxoeicosanoid receptor 1).
[11] abbreviates: read-out: % GPCR activation compared to TPA, GPER (G protein-coupled estrogen receptor 1).
[12] abbreviates: read-out: % GPCR activation compared to TPA, OPN3 (opsin 3).
The mark [13] stands for this setting: H1 (histamine receptor H1), read-out: % GPCR activation compared to TPA.
[14] abbreviates: GPRC6A (G protein-coupled receptor, family C, group 6, member A), read-out: % GPCR activation compared to TPA.
Where [15] appears, read: GPR125 (Adhesion G Protein-Coupled Receptor A2 (ADGRA3)), read-out: % GPCR activation compared to TPA.
[16] abbreviates: OXER1 (oxoeicosanoid receptor 1), read-out: % GPCR activation compared to TPA.
Setting [17] is: GPER (G protein-coupled estrogen receptor 1), read-out: % GPCR activation compared to TPA.
The mark [18] stands for this setting: OPN3 (opsin 3), read-out: % GPCR activation compared to TPA.

Results on five compounds are retold here after paper PMC10175918 (Communications Biology, 2023).

Molecules are shown by their SMILES. Where two headings read alike, the source gives them in different places.

T1 sequence (P35367 whole entry): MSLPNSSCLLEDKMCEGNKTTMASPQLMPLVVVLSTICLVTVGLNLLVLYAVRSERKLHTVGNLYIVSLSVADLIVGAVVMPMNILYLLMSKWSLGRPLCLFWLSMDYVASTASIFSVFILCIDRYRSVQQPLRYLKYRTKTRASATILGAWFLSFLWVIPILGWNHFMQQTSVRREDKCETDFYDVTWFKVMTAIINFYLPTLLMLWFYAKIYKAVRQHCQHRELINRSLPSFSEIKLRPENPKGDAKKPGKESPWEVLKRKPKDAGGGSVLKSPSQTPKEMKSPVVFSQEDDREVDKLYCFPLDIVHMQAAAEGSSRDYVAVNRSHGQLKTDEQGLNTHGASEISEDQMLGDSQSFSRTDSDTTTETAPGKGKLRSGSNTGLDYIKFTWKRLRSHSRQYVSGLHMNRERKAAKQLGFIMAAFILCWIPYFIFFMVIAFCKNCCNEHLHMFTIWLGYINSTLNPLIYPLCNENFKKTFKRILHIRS
T5 sequence (Q99527 whole entry): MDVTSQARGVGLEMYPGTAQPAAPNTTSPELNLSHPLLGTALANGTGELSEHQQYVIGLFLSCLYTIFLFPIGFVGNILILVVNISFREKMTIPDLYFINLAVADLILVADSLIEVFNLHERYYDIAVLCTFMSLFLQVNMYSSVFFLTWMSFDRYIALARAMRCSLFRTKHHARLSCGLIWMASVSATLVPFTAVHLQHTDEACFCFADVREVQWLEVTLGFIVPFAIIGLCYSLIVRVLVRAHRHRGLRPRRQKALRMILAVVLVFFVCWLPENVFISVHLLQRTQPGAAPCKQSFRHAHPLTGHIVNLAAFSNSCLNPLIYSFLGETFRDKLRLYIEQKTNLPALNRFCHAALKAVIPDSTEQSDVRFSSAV
T4 sequence (Q8TDS5 whole entry): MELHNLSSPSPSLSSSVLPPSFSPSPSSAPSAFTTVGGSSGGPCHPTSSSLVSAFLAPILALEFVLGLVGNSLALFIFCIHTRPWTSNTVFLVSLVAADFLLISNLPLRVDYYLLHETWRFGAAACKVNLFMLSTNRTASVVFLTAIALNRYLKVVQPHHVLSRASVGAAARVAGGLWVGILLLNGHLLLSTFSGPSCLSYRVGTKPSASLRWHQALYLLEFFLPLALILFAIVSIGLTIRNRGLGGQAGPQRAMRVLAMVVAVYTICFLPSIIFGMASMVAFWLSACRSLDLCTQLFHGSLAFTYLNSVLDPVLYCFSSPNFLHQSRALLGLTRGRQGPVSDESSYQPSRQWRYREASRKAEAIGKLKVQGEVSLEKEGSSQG
T6 sequence (Q9H1Y3 whole entry): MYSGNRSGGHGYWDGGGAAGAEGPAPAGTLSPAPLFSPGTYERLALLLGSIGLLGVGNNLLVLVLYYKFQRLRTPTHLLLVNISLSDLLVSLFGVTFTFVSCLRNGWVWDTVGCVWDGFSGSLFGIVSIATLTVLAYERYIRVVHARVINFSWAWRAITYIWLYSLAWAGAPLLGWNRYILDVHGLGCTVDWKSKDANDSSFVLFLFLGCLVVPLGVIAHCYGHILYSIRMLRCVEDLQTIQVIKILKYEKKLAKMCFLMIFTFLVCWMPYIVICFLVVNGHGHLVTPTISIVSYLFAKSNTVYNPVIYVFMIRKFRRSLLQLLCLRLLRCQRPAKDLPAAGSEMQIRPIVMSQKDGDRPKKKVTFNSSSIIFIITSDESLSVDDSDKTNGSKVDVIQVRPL

Regarding `CC(C)OC(=O)[C@H](C)N[P@](=O)(OC[C@H]1O[C@@H](n2ccc(=O)[nH]c2=O)[C@](C)(F)[C@@H]1O)Oc1ccccc1` [sofosbuvir], the activation at 10 µM at 348 GPCRs [1] (setting [7]) is -0.312%; at 348 GPCRs [2] (setting [8]) it was 0.803%; at 348 GPCRs [3] (setting [9]), 0.926%; on 348 GPCRs [4] (setting [10]), -1.86%; on 348 GPCRs [5] (setting [11]), -0.815%. At 348 GPCRs [6] (setting [12]), the activation at 100 µM was determined as 0.266%.
With `NC(=O)c1nc(F)cnc1O` [favipiravir, 6-fluoro-3-hydroxy-2-pyrazinecarboxamide], the activation at 10 µM at 348 GPCRs [1] (setting [13]) is 0.654%; on 348 GPCRs [2] (setting [14]), -1.55%; on 348 GPCRs [3] (setting [15]), -1.96%; at 348 GPCRs [4] (setting [16]) it was 0.649%; on 348 GPCRs [5] (setting [17]), -2.76%. Also, on 348 GPCRs [6] (setting [18]), the activation at 100 µM was -0.343%.
In the case of `CCC(CC)COC(=O)[C@H](C)N[P@](=O)(OC[C@H]1O[C@@](C#N)(c2ccc3c(N)ncnn23)[C@H](O)[C@@H]1O)Oc1ccccc1` [remdesivir], the activation at 10 µM is -3.69% on 348 GPCRs [1] (setting [7]); -2.47% on 348 GPCRs [2] (setting [8]); -0.226% at 348 GPCRs [3] (setting [9]); 2.06% at 348 GPCRs [4] (setting [10]); 1.6% at 348 GPCRs [5] (setting [11]). At 348 GPCRs [6] (setting [12]), the activation at 100 µM was -0.473%.
As for `N#C[C@@]1(c2ccc3c(N)ncnn23)O[C@H](CO)[C@@H](O)[C@H]1O` [GS441524], the activation at 10 µM at 348 GPCRs [1] (setting [13]) was -5.47%; at 348 GPCRs [2] (setting [14]), -1.11%; at 348 GPCRs [3] (setting [15]) it was -0.689%; on 348 GPCRs [4] (setting [16]), -0.233%; on 348 GPCRs [5] (setting [17]), -3.06%. For the same compound, the activation at 100 µM on 348 GPCRs [6] (setting [18]) was -0.281%.
Regarding `CC(C)C(=O)OC[C@H]1O[C@@H](n2ccc(NO)nc2=O)[C@H](O)[C@@H]1O` [molnupiravir], the activation at 10 µM on 348 GPCRs [1] (setting [13]) was -2.24%; at 348 GPCRs [2] (setting [14]) it was -1.51%; at 348 GPCRs [3] (setting [15]), -0.998%; at 348 GPCRs [4] (setting [16]) it was -0.119%; at 348 GPCRs [5] (setting [17]) it was -1.26%. In addition, on 348 GPCRs [6] (setting [18]), the activation at 100 µM is -0.438%.
